We go through one molecule from patent publication US20070259435A1, “Intravenous Drug Administration and Blood Sampling Model in the Awake Rat” (priority 2004, published 2007).

Where a name gives a salt, the structure may show the parent alone. Read-outs that look alike come from different tables or passages of the source.

The nature of series [1]: in vivo. The conditions noted are these: male, Sprague-Dawley, rat, po, 5 mg/kg, single oral 5 mg/kg, multiple sampling. An excerpt:
(§1) Male SPF Sprague-Dawley rats (200-300 g, Charles River, Germany) were used throughout the study. Animals were allowed to acclimatize for one week prior to each part of the study. Tap water and food were available ad libitum.
For multiple blood sampling via the tail vein the animals were placed in a rodent cylindrical restrainer developed by the Scientific Instrument Division (Johnson & Johnson, Pharmaceutical Research and Development, division of Janssen Pharmaceutica). The rat's tail was warmed using an infra red lamp to facilitate the sampling. Venous blood was collected by a 27 G needle into Multivette 600KE tubes containing EDTA (Sarstedt, Germany).
(§2) The plasma concentration profile and major PK parameters of different chemical structures were investigated following oral administration. Blood samples were taken from the tail vein with either the multiple or single sampling method.
(§3) For both methods, the same formulation per compound was used to ensure any differences in results were not due to formulation effects. Test compounds JNJ1 (a farnesyl transferase compound), JNJ2 (galantamine hydrobromide) and JNJ3 (a CRF antagonist) were formulated in demineralized water or a 10% hydroxypropyl- -β cyclodextrin (HP- - ? CD) solution at final concentrations of between 0.25 and 1 mg/ml. All formulations were stored at room temperature, protected from light and analysed quantitatively. Animals were orally dosed by gastric intubation using a volume of 10 ml/kg.
After dosing the compound, blood samples were taken at the desired time points. For the single sampling method, three animals per time point were sacrificed by decapitation and blood was collected by exsanguination into 10 ml B-D Sterile EDTA K3 Vacutainer tubes. For the multiple sampling technique 0.3 ml venous blood was repeatedly collected from the tail vein as described above. For each compound, 3 rats were used for a complete plasma concentration time profile. Plasma samples were analysed for the appropriate compound using individual qualified research LC-MS/MS methods as described in section 2.4.
For all compounds, individual calibration curves were constructed in blank EDTA rat plasma (covering the expected concentration range). Independent quality control samples (QC) were prepared in rat EDTA plasma at four concentration levels in duplicate, covering the entire calibration range. The study samples, calibration and QC samples were extracted using a generic sample preparation method. After sample preparation, the (reconstituted) residues were pipetted in polypropylene auto sampler vials and analysed using individual qualified research methods.
Aliquots of the residues were analysed using multiple reaction monitoring (MRM) liquid chromatography coupled to tandem mass spectrometry (LC-MS/MS) (API-3000 or 4000, Applied Biosystems, Canada). Chromatographic separation was obtained on commercial base deactivated C-18 columns of different brands, depending on the chromatographic behaviour of the compounds to be analysed. The mass spectrometers were operated in the TurbolonSpray TM mode (positive ion electrospray ionisation). For each compound the mass spectrometer was optimised to measure a selective parent-daughter transition. Integration of the chromatographic peaks was performed using the Analist software version 1.2 (Applied Biosystem, Canada). Final concentrations were calculated by interpolation from the calibration curves response, using a linear regression model. Both accuracy and precision were within expectations for all compounds, allowing accurate PK calculations
A limited PK analysis was performed using WinNonlin™ Professional (Version 3.3). For the single sampling method, a non-compartmental data analysis was carried out on the mean plasma concentration profile (n=3/time point). For the multiple sampling method, a non-compartmental data analysis was carried out on the plasma concentration time profiles obtained from each animal (n=3). […]

The nature of series [2]: in vivo. The conditions noted are these: male, Sprague-Dawley, rat, single oral 5 mg/kg, Mean.
Source text: as §1, §2, §3
After dosing the compound, blood samples were taken at the desired time points. For the single sampling method, three animals per time point were sacrificed by decapitation and blood was collected by exsanguination into 10 ml B-D Sterile EDTA K3 Vacutainer tubes. For the multiple sampling technique 0.3 ml venous blood was repeatedly collected from the tail vein as described above. […] Plasma samples were analysed for the appropriate compound using individual qualified research LC-MS/MS methods as described in section 2.4.
For all compounds, individual calibration curves were constructed in blank EDTA rat plasma (covering the expected concentration range). […] After sample preparation, the (reconstituted) residues were pipetted in polypropylene auto sampler vials and analysed using individual qualified research methods.
Aliquots of the residues were analysed using multiple reaction monitoring (MRM) liquid chromatography coupled to tandem mass spectrometry (LC-MS/MS) (API-3000 or 4000, Applied Biosystems, Canada). Chromatographic separation was obtained on commercial base deactivated C-18 columns of different brands, depending on the chromatographic behaviour of the compounds to be analysed. […] Final concentrations were calculated by interpolation from the calibration curves response, using a linear regression model. […]
A limited PK analysis was performed using WinNonlin™ Professional (Version 3.3). […] Average values were then calculated to compare the multiple and the single sampling method. The PK parameters calculated were observed maximum plasma concentration (Cmax), the time to reach the maximum plasma concentration (Tmax), plasma half-life (t1/2) and exposure of the compound calculated by the area under the curve (AUClast and AUCinf). […]

Consider `COc1ccc2c3c1O[C@H]1C[C@@H](O)C=C[C@@]31CCN(C)C2` [JNJ2, galantamine hydrobromide], for which the AUC(0-inf) in series [1] (Mean, read-out: AUCinf (extrapolated exposure)) was 1180 ng·h/mL; in series [1] (Rat 1, read-out: AUCinf (extrapolated exposure)), 1440 ng·h/mL; in series [1] (Rat 2, read-out: AUCinf (extrapolated exposure)), 1180 ng·h/mL; in series [1] (Rat 3, read-out: AUCinf (extrapolated exposure)) it was 913 ng·h/mL; in series [2] (read-out: AUCinf (extrapolated exposure)) it was 1440 ng·h/mL. Further, the AUC(0-t) was determined as 1100 ng·h/mL in series [1] (Mean, read-out: AUClast (observed exposure)); 1310 ng·h/mL in series [1] (Rat 1, read-out: AUClast (observed exposure)); 1120 ng·h/mL in series [1] (Rat 2, read-out: AUClast (observed exposure)); 866 ng·h/mL in series [1] (Rat 3, read-out: AUClast (observed exposure)); 1380 ng·h/mL in series [2] (read-out: AUClast (observed exposure)). Besides, the Cmax was determined as 113 ng/mL in series [1] (Mean, read-out: Cmax (maximum plasma concentration)); 135 ng/mL in series [1] (Rat 1, read-out: Cmax (maximum plasma concentration)); 96.3 ng/mL in series [1] (Rat 2, read-out: Cmax (maximum plasma concentration)); 108 ng/mL in series [1] (Rat 3, read-out: Cmax (maximum plasma concentration)); 155 ng/mL in series [2] (read-out: Cmax (maximum plasma concentration)). Further, the half-life was 345 min in series [1] (Mean, read-out: t1/2 (half life) (converted)); 409 min in series [1] (Rat 1, read-out: t1/2 (half life) (converted)); 293 min in series [1] (Rat 2, read-out: t1/2 (half life) (converted)); 339 min in series [1] (Rat 3, read-out: t1/2 (half life) (converted)); 296 min in series [2] (read-out: t1/2 (half life) (converted)).
